Calls of active or inactive are those of the source. The calls are words filed in the database; no cut-off is given here.
How the values were obtained:
[1] = Toxicity in C57BL/6 mouse xenografted with human MV4-11 cells at 300 mg/kg, po; format: organism-based; conditions: in vivo
[2] = target: MLL1/ASH2L/RBBP5/WDR5 complex (Homo sapiens) (UniProt P61964+Q03164+Q9UBL3+Q15291); test: Inhibition of MLL (MLL/ASH2L/RBBP5/WDR5) (unknown origin) at <5 uM using histone H3 peptide (1 to 21) as substrate in presence of co-factor SAM by LC-MS analysis; format: protein-complex assay
[3] = target: T1, Histone-lysine N-methyltransferase EHMT2 (Homo sapiens) (UniProt Q96KQ7); test: Inhibition of G9a (unknown origin) at <5 uM using histone H3 peptide (1 to 21) as substrate in presence of co-factor SAM by LC-MS analysis
T1 sequence (whole entry): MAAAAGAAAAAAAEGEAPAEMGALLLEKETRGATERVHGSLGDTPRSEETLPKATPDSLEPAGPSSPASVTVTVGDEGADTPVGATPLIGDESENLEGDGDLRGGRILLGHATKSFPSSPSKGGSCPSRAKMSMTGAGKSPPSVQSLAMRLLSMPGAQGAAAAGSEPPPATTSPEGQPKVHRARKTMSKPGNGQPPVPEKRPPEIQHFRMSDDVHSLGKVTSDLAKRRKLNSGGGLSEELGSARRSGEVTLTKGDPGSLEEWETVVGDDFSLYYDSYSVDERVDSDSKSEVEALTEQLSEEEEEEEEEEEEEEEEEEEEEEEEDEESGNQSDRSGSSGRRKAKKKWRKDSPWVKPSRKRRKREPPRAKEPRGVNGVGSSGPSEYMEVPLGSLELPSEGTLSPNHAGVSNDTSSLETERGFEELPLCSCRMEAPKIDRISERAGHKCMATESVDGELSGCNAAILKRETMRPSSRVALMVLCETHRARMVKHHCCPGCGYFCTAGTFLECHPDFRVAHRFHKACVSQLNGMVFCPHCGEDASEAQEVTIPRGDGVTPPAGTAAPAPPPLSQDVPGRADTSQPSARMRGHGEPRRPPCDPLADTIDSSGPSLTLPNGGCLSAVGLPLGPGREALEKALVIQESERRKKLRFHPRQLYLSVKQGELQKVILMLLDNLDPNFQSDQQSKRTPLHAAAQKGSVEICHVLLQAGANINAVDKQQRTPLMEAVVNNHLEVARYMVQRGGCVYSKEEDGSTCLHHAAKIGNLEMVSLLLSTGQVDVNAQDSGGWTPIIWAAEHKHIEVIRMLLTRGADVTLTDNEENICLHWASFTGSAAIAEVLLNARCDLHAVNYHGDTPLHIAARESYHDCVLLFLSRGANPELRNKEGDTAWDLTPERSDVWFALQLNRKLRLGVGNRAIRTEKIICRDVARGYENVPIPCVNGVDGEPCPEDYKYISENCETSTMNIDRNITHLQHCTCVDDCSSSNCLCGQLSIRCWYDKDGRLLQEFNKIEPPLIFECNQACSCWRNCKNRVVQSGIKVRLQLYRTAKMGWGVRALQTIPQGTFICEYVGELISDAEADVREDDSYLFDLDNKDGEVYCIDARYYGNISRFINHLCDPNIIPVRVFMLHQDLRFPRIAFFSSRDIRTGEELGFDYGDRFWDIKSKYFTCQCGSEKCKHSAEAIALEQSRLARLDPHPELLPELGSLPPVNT

[4] = target: T2, Histone-lysine N-methyltransferase NSD3 (Homo sapiens) (UniProt Q9BZ95); test: Inhibition of NSD3 (unknown origin) at <5 uM using histone H3 peptide (1 to 45) as substrate in presence of co-factor SAM by LC-MS analysis
T2 sequence (whole entry): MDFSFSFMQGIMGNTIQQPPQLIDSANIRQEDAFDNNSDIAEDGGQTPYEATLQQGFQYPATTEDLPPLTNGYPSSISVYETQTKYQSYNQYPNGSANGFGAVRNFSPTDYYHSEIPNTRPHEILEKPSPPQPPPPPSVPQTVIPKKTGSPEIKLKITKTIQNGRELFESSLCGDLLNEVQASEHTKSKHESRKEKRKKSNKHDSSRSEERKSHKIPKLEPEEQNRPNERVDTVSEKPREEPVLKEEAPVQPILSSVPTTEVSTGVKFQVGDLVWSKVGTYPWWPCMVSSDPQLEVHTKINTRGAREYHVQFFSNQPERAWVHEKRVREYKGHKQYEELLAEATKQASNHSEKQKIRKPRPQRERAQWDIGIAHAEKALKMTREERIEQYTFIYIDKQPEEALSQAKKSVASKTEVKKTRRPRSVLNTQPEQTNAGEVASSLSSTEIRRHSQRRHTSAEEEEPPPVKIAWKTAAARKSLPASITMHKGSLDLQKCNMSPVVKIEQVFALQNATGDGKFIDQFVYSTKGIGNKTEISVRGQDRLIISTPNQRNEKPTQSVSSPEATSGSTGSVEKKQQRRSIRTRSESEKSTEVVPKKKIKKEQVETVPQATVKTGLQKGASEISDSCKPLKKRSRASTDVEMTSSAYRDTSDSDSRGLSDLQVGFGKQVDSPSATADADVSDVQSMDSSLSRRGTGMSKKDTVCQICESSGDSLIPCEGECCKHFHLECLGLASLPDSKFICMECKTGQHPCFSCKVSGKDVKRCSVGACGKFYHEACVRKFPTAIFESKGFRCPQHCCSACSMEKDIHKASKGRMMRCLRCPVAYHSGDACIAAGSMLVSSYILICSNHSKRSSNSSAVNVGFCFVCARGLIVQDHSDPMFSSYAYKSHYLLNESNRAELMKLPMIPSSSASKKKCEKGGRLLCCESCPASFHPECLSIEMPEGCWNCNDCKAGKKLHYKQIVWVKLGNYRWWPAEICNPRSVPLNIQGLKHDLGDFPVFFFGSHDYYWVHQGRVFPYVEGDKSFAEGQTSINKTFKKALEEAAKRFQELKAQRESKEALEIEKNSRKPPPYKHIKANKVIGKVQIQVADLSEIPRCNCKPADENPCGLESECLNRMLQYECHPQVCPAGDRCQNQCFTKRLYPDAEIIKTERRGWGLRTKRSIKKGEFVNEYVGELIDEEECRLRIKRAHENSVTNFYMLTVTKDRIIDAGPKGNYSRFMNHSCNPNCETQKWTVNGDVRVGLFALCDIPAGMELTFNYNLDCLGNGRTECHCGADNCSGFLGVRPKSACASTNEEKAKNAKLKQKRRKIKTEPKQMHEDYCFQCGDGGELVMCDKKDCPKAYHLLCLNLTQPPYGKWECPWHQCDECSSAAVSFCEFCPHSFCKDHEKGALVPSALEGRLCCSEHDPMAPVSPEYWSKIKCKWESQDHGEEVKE

## COc1nc(Nc2cc(S(C)(=O)=O)ccc2N[C@@H](c2cccc3c2OC(F)(F)O3)c2ncccc2Cl)nc(N2CCNCC2)n1
[1]
  Activity: Toxic
[2]
  inhibition: inactive
[3]
  inhibition: inactive
[4]
  inhibition: inactive

— ChEMBL document CHEMBL4406923, “New Potent DOT1L Inhibitors for in Vivo Evaluation in Mouse” (ACS Med Chem Lett, 2019)
